According to PubChem BioAssay (NCI):
“And” between values parts separate entries of the source, which are not always exact repeats. Equal values may be shown once.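 Values below derive from 48-hour exposures of cells grown in 96-well plates, with endpoints linearly interpolated between the two concentrations bracketing the appropriate inhibition level. GI50 is the concentration that inhibits growth by half. TGI marks complete inhibition of growth.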

Key:
Assay in all cases: growth of human tumour cells (NCI), 48 h
EKVX NSCLC = system: EKVX NSCLC
K-562 leukemia = system: K-562 leukemia
786-0 renal = system: 786-0 renal
SK-OV-3 ovarian = system: SK-OV-3 ovarian
SF-295 CNS = system: SF-295 CNS
IGROV1 ovarian = system: IGROV1 ovarian
SK-MEL-28 melanoma = system: SK-MEL-28 melanoma
KM12 colon = system: KM12 colon
OVCAR-5 ovarian = system: OVCAR-5 ovarian
NCI/ADR-RES ovarian = system: NCI/ADR-RES ovarian
PC-3 prostate = system: PC-3 prostate
SF-268 CNS = system: SF-268 CNS

Row | SMILES | TGI (EKVX NSCLC) | TGI (K-562 leukemia) [µM] | TGI (786-0 renal) [µM] | TGI (SK-OV-3 ovarian) | TGI (SF-295 CNS) [µM] | TGI (IGROV1 ovarian) | TGI (SK-MEL-28 melanoma) | TGI (KM12 colon) [µM] | TGI (OVCAR-5 ovarian) | GI50 (K-562 leukemia) [µM] | GI50 (SK-OV-3 ovarian) [µM] | GI50 (SF-295 CNS) [µM] | GI50 (IGROV1 ovarian) [µM] | GI50 (NCI/ADR-RES ovarian) [µM] | TGI (NCI/ADR-RES ovarian) [µM] | GI50 (PC-3 prostate) [µM] | TGI (PC-3 prostate) [µM] | TGI (SF-268 CNS) [µM] | GI50 (SK-MEL-28 melanoma) [µM]
1 | O=C(CSc1nnc(Cc2ccccc2)o1)Nc1ccc(Cl)cc1 | 92.4 µM | > 100 | > 100 | > 100 µM | > 100 | > 100 µM | > 100 µM | > 100 | > 100 µM | – | – | – | – | – | – | – | – | – | –
2 | CN(C)c1ccc(/C=C/c2sc3ccc4ccccc4c3[n+]2C)cc1 | – | > 100 | – | 2.4 µM | 2.32 | 1.66 µM | – | – | – | 0.199 | 0.482 | 0.395 | 0.368 | 2.81 | > 100 | 0.315 | 1.71 | – | –
3 | OC1C(O)C(O)C(O)C(O)C1O (stereo unspecified) | – | > 1000 | > 1000 | > 1000 µM | – | > 1000 µM | > 1000 µM | – | > 1000 µM | – | – | – | – | – | > 1000 | – | > 1000 | > 1000 | –
4 | CC(=O)Oc1ccn2nc(C)c(Br)c2c1Br | > 58.5 µM | 50.1 | > 100 | – | > 89.3 | > 72.2 µM | 45 µM | > 100 | – | – | – | – | – | – | > 100 | – | 43.7 | > 90.1 | –
5 | O=c1ccc2ccccc2o1 | > 100 µM | > 100 | > 100 | > 100 µM | > 100 | > 100 µM | > 100 µM | > 100 | > 100 µM | – | – | – | – | – | – | – | – | > 100 | –
6 | COC(=O)[C@@H]1c2cc3c(c(O)c2[C@@H](OC)C[C@@]1(C)O)C(=O)c1c(O)cc2c(c1C3=O)OC1O[C@@]2(C)[C@H](O)[C@@H](N(C)C)[C@@H]1O | 1.33 µM | 7.31 | – | 3.94 µM | 0.97 | 1.7 µM | – | 2.34 | 2.16 µM | – | – | – | – | – | 4.22 | – | – | 3.02 | –
7 | Clc1ccc(OCc2nnc3sc(-c4ccc(-c5ccc(Cl)cc5Cl)o4)nn23)c(Cl)c1 | 34.5 µM | 62.7 | 26.1 | 48.3 µM | 33.6 | 35.2 µM | 60.9 µM | > 100 | 49.1 µM | – | – | – | – | – | 45.1 | – | 33.1 | 32.5 | –
8 | Oc1cc(Cl)cc2cc(Br)cnc12 | > 64.2 µM | > 22.6 | > 100 | > 100 µM | > 45.4 | > 94.1 µM | > 100 µM | > 100 | > 100 µM | – | – | – | – | – | > 54.5 | – | > 100 | > 48.1 | –
9 | Cc1cc2c(c3oc(C(O)(CO)C4CO4)cc(=O)c13)C(=O)c1c(O)cccc1C2=O (stereo unspecified) | 0.0171 µM and 0.0378 µM | – | – | 0.00671 µM and 0.00173 µM | 0.00094 | 0.0019 µM and 0.00294 µM | 0.0095 µM and 0.00824 µM and 0.0382 µM | – | 0.00791 µM and 0.00328 µM and 0.0041 µM | – | – | – | – | – | – | – | – | – | 0.00375
10 | CCOC(OCC)C(CC)[Se]c1ccccc1[N+](=O)[O-] (stereo unspecified) | > 100 µM | > 38.5 | > 46.7 | 9.44 µM | > 22.9 | > 100 µM | > 100 µM | 71.4 | > 100 µM | – | – | – | – | – | – | – | > 100 | 63.9 | –
11 | c1ccc2c(c1)CCc1c-2n(CCN2CCCCC2)c2ccccc12 | 37.9 µM | 30.9 | 33 | 49.7 µM | 30.8 | 27.3 µM | 50.9 µM | 32 | 30.2 µM | – | – | – | – | – | 33.1 | – | 27.1 | 49.5 | –
12 | Oc1[nH]c2ccccc2c1N=NC1=NCCCCN1 | > 100 µM | > 100 | > 100 | > 100 µM | > 100 | > 100 µM | – | > 100 | > 100 µM | – | – | – | – | – | > 100 | – | > 100 | > 100 | –
13 | COc1cc(/C=C2\N=C(c3ccccc3)N(C3Nc4cc5c(cc4S3)NC(N3C(=O)/C(=C/c4cc(OC)c(OC)c(OC)c4)N=C3c3ccccc3)S5)C2=O)cc(OC)c1OC (stereo unspecified) | > 100 µM | > 100 | > 100 | – | > 100 | > 100 µM | > 100 µM | > 100 | > 100 µM | – | – | – | – | – | > 100 | – | > 100 | > 100 | –
14 | Cc1ccc(C(=O)CC(Cl)=C(Cl)Cl)cc1 | – | > 100 | > 100 | > 100 µM | > 100 | > 100 µM | > 100 µM | > 100 | > 100 µM | – | – | – | – | – | > 100 | – | > 100 | > 100 | –
15 | Cc1nc2c(nc1C)-c1c(c3c(n1Cc1ccccc1)C(=O)CCC3)C(=O)C2=O | > 100 µM | > 100 | > 100 | > 100 µM | 71.1 | – | 4.18 µM | 4.64 | > 100 µM | – | – | – | – | – | > 100 | – | 29.4 | – | –
16 | O=c1nc2n(cc1/C=C\Br)C1CC(O)C(CO2)O1 (stereo unspecified) | > 100 µM | > 100 | > 100 | > 100 µM | > 100 | > 100 µM | > 100 µM | > 100 | > 100 µM | – | – | – | – | – | > 100 | – | – | > 100 | –
17 | COC(=O)C(NC(=O)CNC(=O)CSc1nnc(COc2ccc(Cl)cc2)n1-c1ccccc1)C(C)C (stereo unspecified) | > 100 µM | > 100 | 32.5 | – | 34.5 | 50.1 µM | 31.1 µM | 35.4 | 40.1 µM | – | – | – | – | – | > 100 | – | 33 | 42.7 | –
18 | C=C1CC/C=C(/C(=O)O)CC[C@H]2[C@@H]1CC2(C)C | > 100 µM | > 100 | > 100 | > 100 µM | > 100 | > 100 µM | > 100 µM | > 100 | > 100 µM | – | – | – | – | – | – | – | > 100 | > 100 | –
19 | CC(C)(C)OC(=O)C1=C(C(=O)OC(C)(C)C)SC2(S1)C(C(=O)OC(C)(C)C)=C(C(=O)OC(C)(C)C)Sc1c2ssc1=O | > 100 µM | > 100 | – | > 100 µM | > 100 | > 100 µM | > 100 µM | > 100 | > 100 µM | – | – | – | – | – | > 100 | – | > 100 | > 100 | –
20 | N#CCCC(CC#N)N1CCN(CCO)CC1 (stereo unspecified) | > 100 µM | > 100 | > 100 | > 100 µM | > 100 | > 100 µM | > 100 µM | > 100 | > 100 µM | – | – | – | – | – | > 100 | – | – | > 100 | –
